Assay results taken from ChEMBL document CHEMBL2440076, “New triarylpyrazoles as broad-spectrum anticancer agents: design, synthesis, and biological evaluation” (Eur J Med Chem, 2013).

Key:
A549 = experiment: Growth inhibition of human A549/ATCC cells assessed as cell growth at 10 uM after 48 hrs by sulforhodamine B assay; format: functional; settings: A549, 48 h, read-out: Activity
CCRF-CEM [1] = experiment: Growth inhibition of human CCRF-CEM cells after 48 hrs by sulforhodamine B assay; format: functional
CAKI-1 = experiment: Growth inhibition of human CAKI-1 cells assessed as cell growth at 10 uM after 48 hrs by sulforhodamine B assay; format: functional; settings: CAKI-1, 48 h, read-out: Activity
OVCAR-5 [2] = experiment: Growth inhibition of human OVCAR5 cells assessed as cell growth at 10 uM after 48 hrs by sulforhodamine B assay; format: functional; settings: OVCAR-5, 48 h, read-out: Activity
KM12 = experiment: Growth inhibition of human KM12 cells after 48 hrs by sulforhodamine B assay; format: functional, cell-based; settings: KM12, 48 h; for CC50: read-out: LC50 (the source's name)
NCI-H226 = experiment: Growth inhibition of human NCI-H226 cells after 48 hrs by sulforhodamine B assay; format: functional; settings: NCI-H226, 48 h; for CC50: read-out: LC50 (the source's name)
SK-MEL-2 = experiment: Growth inhibition of human SK-MEL-2 cells assessed as cell growth at 10 uM after 48 hrs by sulforhodamine B assay; format: functional; settings: SK-MEL-2, 48 h, read-out: Activity
PC-3 = experiment: Growth inhibition of human PC3 cells assessed as cell growth at 10 uM after 48 hrs by sulforhodamine B assay; format: functional; settings: PC-3, 48 h, read-out: Activity
SK-MEL-5 [3] = experiment: Growth inhibition of human SK-MEL-5 cells assessed as cell growth at 10 uM after 48 hrs by sulforhodamine B assay; format: functional; settings: SK-MEL-5, 48 h, read-out: Activity
786-0 = experiment: Growth inhibition of human 786-0 cells assessed as cell growth at 10 uM after 48 hrs by sulforhodamine B assay; format: functional; settings: 786-0, 48 h, read-out: Activity
OVCAR-8 = experiment: Growth inhibition of human OVCAR8 cells assessed as cell growth at 10 uM after 48 hrs by sulforhodamine B assay; format: functional; settings: OVCAR-8, 48 h, read-out: Activity
HOP-62 = experiment: Growth inhibition of human HOP62 cells assessed as cell growth at 10 uM after 48 hrs by sulforhodamine B assay; format: functional; settings: HOP-62, 48 h, read-out: Activity
BT-549 = experiment: Growth inhibition of human BT549 cells after 48 hrs by sulforhodamine B assay; format: functional; settings: BT-549, 48 h
OVCAR-5 [4] = experiment: Growth inhibition of human OVCAR5 cells after 48 hrs by sulforhodamine B assay; format: functional; settings: OVCAR-5, 48 h
RXF 393 [5] = experiment: Growth inhibition of human RXF393 cells assessed as cell growth at 10 uM after 48 hrs by sulforhodamine B assay; format: functional; settings: RXF 393, 48 h, read-out: Activity
HT-29 = experiment: Growth inhibition of human HT-29 cells after 48 hrs by sulforhodamine B assay; format: functional; settings: HT-29, 48 h; for CC50: read-out: LC50 (the source's name)
NCI-H23 = experiment: Growth inhibition of human NCI-H23 cells after 48 hrs by sulforhodamine B assay; format: functional; settings: NCI-H23, 48 h
RXF 393 [6] = experiment: Growth inhibition of human RXF393 cells after 48 hrs by sulforhodamine B assay; format: functional; settings: RXF 393, 48 h
HCT-15 = experiment: Growth inhibition of human HCT15 cells assessed as cell growth at 10 uM after 48 hrs by sulforhodamine B assay; format: functional; settings: HCT-15, 48 h, read-out: Activity
Malme-3M = experiment: Growth inhibition of human MALME-3M cells assessed as cell growth at 10 uM after 48 hrs by sulforhodamine B assay; format: functional; settings: read-out: Activity
DU-145 = experiment: Growth inhibition of human DU145 cells after 48 hrs by sulforhodamine B assay; format: functional; settings: DU-145, 48 h
MCF7 = experiment: Growth inhibition of human MCF7 cells after 48 hrs by sulforhodamine B assay; format: functional; settings: MCF7, 48 h
NCI-H322M = experiment: Growth inhibition of human NCI-H322M cells assessed as cell growth at 10 uM after 48 hrs by sulforhodamine B assay; format: functional; settings: read-out: Activity
LOX IMVI = experiment: Growth inhibition of human LOXIMVI cells assessed as cell growth at 10 uM after 48 hrs by sulforhodamine B assay; format: functional; settings: read-out: Activity
A498 = experiment: Growth inhibition of human A498 cells assessed as cell growth at 10 uM after 48 hrs by sulforhodamine B assay; format: functional; settings: A498, 48 h, read-out: Activity
MDA-MB-435 = experiment: Growth inhibition of human MDA-MB-435 cells after 48 hrs by sulforhodamine B assay; format: functional, cell-based; settings: MDA-MB-435, 48 h; for CC50: read-out: LC50 (the source's name)
COLO 205 = experiment: Growth inhibition of human COLO205 cells after 48 hrs by sulforhodamine B assay; format: functional; settings: COLO 205, 48 h
[7] = Growth inhibition of human HCC2998 cells assessed as cell growth at 10 uM after 48 hrs by sulforhodamine B assay; format: functional; settings: HCC 2998, 48 h, read-out: Activity
T47D = experiment: Growth inhibition of human T47D cells assessed as cell growth at 10 uM after 48 hrs by sulforhodamine B assay; format: functional; settings: read-out: Activity
UACC-257 = experiment: Growth inhibition of human UACC257 cells after 48 hrs by sulforhodamine B assay; format: functional; settings: UACC-257, 48 h; for CC50: read-out: LC50 (the source's name)
SF-539 = experiment: Growth inhibition of human SF539 cells after 48 hrs by sulforhodamine B assay; format: functional; settings: SF-539, 48 h
RPMI-8226 = experiment: Growth inhibition of human RPMI8226 cells assessed as cell growth at 10 uM after 48 hrs by sulforhodamine B assay; format: functional; settings: RPMI-8226, 48 h, read-out: Activity
U-251 = experiment: Growth inhibition of human U251 cells assessed as cell growth at 10 uM after 48 hrs by sulforhodamine B assay; format: functional; settings: U-251, 48 h, read-out: Activity
CCRF-CEM [8] = experiment: Growth inhibition of human CCRF-CEM cells assessed as cell growth at 10 uM after 48 hrs by sulforhodamine B assay; format: functional; settings: read-out: Activity
SK-MEL-5 [9] = experiment: Growth inhibition of human SK-MEL-5 cells after 48 hrs by sulforhodamine B assay; format: functional; settings: SK-MEL-5, 48 h

## O=C(Nc1cccc(-n2cc(-c3ccncc3)c(-c3ccc(Cl)c(O)c3)n2)c1)Nc1cccc(C(F)(F)F)c1
A549
  growth at 10 µM: 5.74%
CCRF-CEM [1]
  GI50: 1.4 µM
  LC50: > 32.5 µM
  TGI: > 32.5 µM
CAKI-1
  growth at 10 µM: 30.1%
OVCAR-5 [2]
  growth at 10 µM: 62.4%
KM12
  GI50: 1.33 µM
  TGI: > 32.5 µM
  CC50: > 32.5 µM
NCI-H226
  GI50: 7.35 µM
  TGI: > 32.5 µM
  CC50: > 32.5 µM
SK-MEL-2
  growth at 10 µM: -25.6%
PC-3
  growth at 10 µM: 4.28%
SK-MEL-5 [3]
  growth at 10 µM: -25.5%
786-0
  growth at 10 µM: 34.4%
OVCAR-8
  growth at 10 µM: 10.6%
HOP-62
  growth at 10 µM: 38.1%
BT-549
  GI50: 6.51 µM
  LC50 (50% lethal concentration): > 32.5 µM
  TGI: 21.4 µM
OVCAR-5 [4]
  GI50: 13.7 µM
  LC50 (concentration killing 50% of cells): > 32.5 µM
  TGI: > 32.5 µM
RXF 393 [5]
  growth at 10 µM: 31.3%
HT-29
  GI50: 9.82 µM
  TGI: > 32.5 µM
  CC50: > 32.5 µM
NCI-H23
  GI50: 1.9 µM
  LC50: > 32.5 µM
  TGI: > 32.5 µM
RXF 393 [6]
  GI50: 3.02 µM
  LC50 (concentration killing 50% of cells): > 32.5 µM
  TGI: 12 µM
HCT-15
  growth at 10 µM: 18.2%
Malme-3M
  growth at 10 µM: 1.16%
DU-145
  GI50: 1.76 µM
  LC50: > 32.5 µM
  TGI: > 32.5 µM
MCF7
  GI50: 1.34 µM
  LC50: > 32.5 µM
  TGI: > 32.5 µM
NCI-H322M
  growth at 10 µM: 48.2%
LOX IMVI
  growth at 10 µM: 23.8%
A498
  growth at 10 µM: 17.7%
MDA-MB-435
  GI50: 1.49 µM
  IC50: 1.49 µM
  TGI: 12.6 µM
  CC50: > 32.5 µM
COLO 205
  GI50: 7.9 µM
  LC50 (concentration killing 50% of cells): > 32.5 µM
  TGI: 23.8 µM
[7]
  growth at 10 µM: 40.1%
T47D
  growth at 10 µM: 18.5%
UACC-257
  GI50: 4.34 µM
  TGI: 19.1 µM
  CC50: > 32.5 µM
SF-539
  GI50: 3.54 µM
  LC50 (concentration killing 50% of cells): > 32.5 µM
  TGI: 11.6 µM
RPMI-8226
  growth at 10 µM: 1.63%
U-251
  growth at 10 µM: 15.8%
CCRF-CEM [8]
  growth at 10 µM: 10.6%
SK-MEL-5 [9]
  GI50: 1.3 µM
  LC50 (concentration killing 50% of cells): 13.8 µM
  TGI: 4.71 µM

## COc1cc(-c2nn(-c3cccc(NC(=O)Nc4ccc(Cl)c(C(F)(F)F)c4)c3)cc2-c2ccncc2)ccc1Cl
A549
  growth at 10 µM: -10.4%
CCRF-CEM [1]
  GI50: 0.98 µM
  LC50: > 32.5 µM
  TGI: > 32.5 µM
CAKI-1
  growth at 10 µM: 14.7%
OVCAR-5 [2]
  growth at 10 µM: 35.8%
KM12
  GI50: 1.06 µM
  TGI: 3.92 µM
  CC50: 14.9 µM
NCI-H226
  GI50: 1.82 µM
  TGI: > 32.5 µM
  CC50: > 32.5 µM
SK-MEL-2
  growth at 10 µM: -57.8%
PC-3
  growth at 10 µM: -19.1%
SK-MEL-5 [3]
  growth at 10 µM: -65.3%
786-0
  growth at 10 µM: 15.1%
OVCAR-8
  growth at 10 µM: -19.9%
HOP-62
  growth at 10 µM: 5.4%
BT-549
  GI50: 2.36 µM
  LC50 (50% lethal concentration): > 32.5 µM
  TGI: 10.2 µM
OVCAR-5 [4]
  GI50: 3.09 µM
  LC50 (concentration killing 50% of cells): > 32.5 µM
  TGI: 11 µM
RXF 393 [5]
  growth at 10 µM: -27.8%
HT-29
  GI50: 1.19 µM
  TGI: 4.45 µM
  CC50: 21.5 µM
NCI-H23
  GI50: 1.31 µM
  LC50: > 32.5 µM
  TGI: 8.03 µM
RXF 393 [6]
  GI50: 1.18 µM
  LC50 (concentration killing 50% of cells): > 32.5 µM
  TGI: 6.29 µM
HCT-15
  growth at 10 µM: 9.91%
Malme-3M
  growth at 10 µM: -14.9%
DU-145
  GI50: 1.5 µM
  LC50: > 32.5 µM
  TGI: > 32.5 µM
MCF7
  GI50: 0.919 µM
  LC50: > 32.5 µM
  TGI: > 32.5 µM
NCI-H322M
  growth at 10 µM: 32.3%
LOX IMVI
  growth at 10 µM: 1.06%
A498
  growth at 10 µM: -6.71%
MDA-MB-435
  GI50: 0.683 µM
  IC50: 0.68 µM
  TGI: 1.69 µM
  CC50: > 32.5 µM
COLO 205
  GI50: 0.711 µM
  LC50 (concentration killing 50% of cells): 3.48 µM
  TGI: 1.54 µM
[7]
  growth at 10 µM: 8.88%
T47D
  growth at 10 µM: 0.62%
UACC-257
  GI50: 1.21 µM
  TGI: 6.03 µM
  CC50: 29.2 µM
SF-539
  GI50: 1.65 µM
  LC50 (concentration killing 50% of cells): 17.5 µM
  TGI: 6.34 µM
RPMI-8226
  growth at 10 µM: -8.66%
U-251
  growth at 10 µM: -20.9%
CCRF-CEM [8]
  growth at 10 µM: -8.04%
SK-MEL-5 [9]
  GI50: 0.818 µM
  LC50 (concentration killing 50% of cells): 10.4 µM
  TGI: 2.89 µM
